Assay results: ChEMBL document CHEMBL4689842, “EUbOPEN Chemogenomics Library wave 1” (2021)

Legend:
Type in all cases: toxicity, cell-based
[1] = system: Fibroblast; assay: Incucyte cell viability with human fibroblast; details: 10 µM, compound concentration 10 uM
[2] = system: HEK-293T; assay: Incucyte cell viability with HEK293T; details: human, 10 µM, compound concentration 10 uM
[3] = system: U2OS; assay: Incucyte cell viability with U2OS; details: human, 10 µM, compound concentration 10 uM
[4] = 0 h, replicate number 1, timepoint 0 hours
[5] = 6 h, replicate number 1, timepoint 6 hours
[6] = 12 h, replicate number 1, timepoint 12 hours
[7] = 18 h, replicate number 1, timepoint 18 hours
[8] = 24 h, replicate number 1, timepoint 24 hours
[9] = 0 h, replicate number 2, timepoint 0 hours
[10] = 6 h, replicate number 2, timepoint 6 hours
[11] = 12 h, replicate number 2, timepoint 12 hours
[12] = 18 h, replicate number 2, timepoint 18 hours
[13] = 24 h, replicate number 2, timepoint 24 hours
Further: filed as whole numbers so only -1 and 0 and 1 occur.

Structure (SMILES) | Growth Rate [1, 4] | Growth Rate [1, 5] | Growth Rate [1, 6] | Growth Rate [1, 7] | Growth Rate [1, 8] | Growth Rate [2, 4] | Growth Rate [2, 9] | Growth Rate [2, 8] | Growth Rate [2, 13] | Growth Rate [3, 5] | Growth Rate [3, 6] | Growth Rate [3, 7] | Growth Rate [3, 8] | Growth Rate [1, 12] | Growth Rate [3, 13] | Growth Rate [2, 5] | Growth Rate [2, 6] | Growth Rate [2, 7] | Growth Rate [3, 4] | Growth Rate [3, 12] | further results
CNc1nc(-c2ccc3c(N)n[nH]c3c2)cc(N2C[C@@H](C(=O)NC3CCCCC3)CC[C@H]2C)n1 | 0 | 1 | 0 | 0 | 0 | 0 | 1 | 1 | 0 | 1 | 0 | 0 | 0 | – | – | – | – | – | – | – | Growth Rate [2, 10]: 0; Growth Rate [2, 11]: 0; Growth Rate [2, 12]: 1; Growth Rate [3, 11]: 1
O=C(Nc1cccnc1)c1cc(-c2ccnc(F)c2)ccc1OCc1ccccc1 | 0 | 0 | 0 | 0 | 0 | 0 | – | 1 | 0 | 1 | 0 | 0 | 0 | 1 | 1 | – | – | – | – | – | Growth Rate [1, 13]: 1; Growth Rate [2, 10]: 1; Growth Rate [2, 11]: 1; Growth Rate [3, 9]: 0
CCc1cc2c(c(CC)n1)CCC(=O)N2Cc1ccc(-c2ccccc2-c2nnn[nH]2)cc1.Cl | 0 | 0 | 0 | 0 | 1 | 0 | – | 1 | – | 0 | 0 | 0 | 0 | 1 | 1 | 1 | 1 | 1 | 1 | – | Growth Rate [1, 10]: 1; Growth Rate [2, 10]: 0; Growth Rate [2, 12]: 0; Growth Rate [3, 9]: 0
CNc1nc(Nc2cnn([C@H]3CCN(C4COC4)C[C@@H]3F)c2Cl)ncc1C(F)(F)F | 0 | – | 1 | 1 | 0 | 0 | – | 0 | – | 0 | 1 | 1 | 1 | – | 0 | 0 | 0 | 0 | 1 | 0 | Growth Rate [1, 13]: 1
COc1ccccc1C(=O)Nc1cc2c(cc1N1CCCC1)n(C)c(=O)n2C | 0 | 1 | 1 | 1 | 1 | 0 | 1 | 1 | – | – | – | – | – | – | – | 0 | 1 | 1 | 0 | – | Growth Rate [1, 10]: 0; Growth Rate [1, 11]: 0
Clc1cc2c(NC3CCCC3)nnc(-c3ccncc3)c2cc1Cl | 0 | 0 | 1 | 1 | 1 | 1 | 0 | 1 | – | 0 | 1 | 0 | 0 | – | 1 | – | 1 | 1 | 1 | 1 | Growth Rate [3, 10]: 1
O=C(NC[C@H](O)CN1CCc2ccccc2C1)c1ccnc(NC2CCC2)c1 | – | 0 | 0 | 0 | 1 | 1 | 0 | – | 1 | 0 | 0 | 0 | 0 | 1 | 1 | – | – | – | 1 | 1 | Growth Rate [1, 9]: 0; Growth Rate [1, 11]: 1; Growth Rate [3, 9]: 0; Growth Rate [3, 10]: 1; Growth Rate [3, 11]: 1
Cn1cc(-c2ccc3occ(-c4ccccc4-c4ccccc4)c3n2)cn1 | – | 1 | 0 | 0 | 0 | 0 | – | 1 | 0 | 1 | 1 | 0 | 1 | 1 | – | – | – | 1 | 0 | 1 | Growth Rate [1, 9]: 0; Growth Rate [1, 11]: 1; Growth Rate [2, 10]: 1; Growth Rate [2, 11]: 0
CN(C)C(=O)c1ccc(-c2cc(C(=O)N(C)C3CCCC3)no2)cc1O | 0 | – | 1 | 1 | 1 | 0 | – | 1 | – | 1 | 1 | 1 | 1 | – | 0 | 1 | 0 | 1 | 1 | 0 | Growth Rate [2, 11]: 1
C[C@H]1CCCN1Cc1nc2cc(NC(=O)c3ccc4cnccc4c3)ccc2[nH]1 | 0 | 0 | 1 | 0 | 0 | 1 | 0 | 1 | 0 | 0 | 1 | 1 | 1 | 1 | – | 0 | 0 | 1 | 0 | – | Growth Rate [1, 13]: 1
